Several values for one entry are separate records, joined by “and”; a condition that tells them apart may be missing. Equal entries are not always repeated. Structures can show the parent of a compound that is named as a salt. Where two headings read alike, the source gives them in different places.
Assays:
[1] = system: p53 signaling (p53RE-bla HCT-116 cells); assay: cells; type: cell-based
[2] = system: p53 signaling (p53RE-bla HCT-116 cells); assay: cells; type: cell-based; remark: listed apart in the source
[3] = system: p53 signaling (p53RE-bla HCT-116 cells); assay: cells; type: cell-based
[4] = system: p53 signaling (p53RE-bla HCT-116 cells)
[5] = system: p53RE-bla HCT-116 cells
[6] = system: p53 signaling (p53RE-bla HCT-116 cells); assay: cells; settings: Homo sapiens
[7] = system: p53 signaling (p53RE-bla HCT-116 cells); remark: listed apart in the source
[8] = HCT-116, read-out: p53 activation EC50, primary screening
[9] = HCT-116, read-out: p53 activation efficacy, primary screening
[10] = Homo sapiens, HCT-116, read-out: EC50, p53 activation, cherry pick confirmation
[11] = Homo sapiens, HCT-116, read-out: EC50, p53 activation, primary screening
[12] = Homo sapiens, HCT-116, read-out: Efficacy, p53 activation, cherry pick confirmation
[13] = HCT-116, read-out: EC50, p53 activation, primary screening

Row | Compound | p53 activation EC50, cherry pick confirmation [1] | p53 activation EC50, primary screening [1] | p53 activation efficacy, cherry pick confirmation [1] | p53 activation efficacy, primary screening [1] | p53 activation EC50, cherry pick confirmation [4] | p53 activation EC50, primary screening [4] | p53 activation efficacy, cherry pick confirmation [4] | p53 activation efficacy, primary screening [4] | Viability EC50, cherry pick confirmation [5] | Viability EC50, primary screening [5] | Viability efficacy, cherry pick confirmation [5] | Viability efficacy, primary screening [5] | EC50 [6, 8] | Emax [6, 9] | p53 activation EC50, cherry pick confirmation [7] | p53 activation efficacy, cherry pick confirmation [7] | other results
1 | COP(=S)(OC)Oc1nc(Cl)c(Cl)cc1Cl [Chlorpyrifos-methyl] | inactive | inactive | inactive | inactive | inactive | inactive | inactive | inactive | inactive | inactive | inactive | inactive | 11 µM | 36.2% |  |  | EC50 ([2]; Homo sapiens, HCT-116, 0.5 h): 1.78 µM; EC50 ([3]; Homo sapiens, HCT-116): 24 µM; EC50 ([6]; HCT-116): 15.5 µM; Emax ([6]; HCT-116, read-out: efficacy): 45%; EC50 ([6]; HCT-116, read-out: p53 activation EC50, cherry pick confirmation): 21.6 µM; Emax ([6]; HCT-116, read-out: p53 activation efficacy, cherry pick confirmation): 62.8%
2 | CCCCCCNC(=O)n1cc(F)c(=O)[nH]c1=O [Carmofur] |  |  |  |  |  |  |  |  |  |  |  |  |  |  |  |  | EC50 [1, 10]: 17.8 µM; EC50 [1, 11]: 2.97 µM; Emax [1, 12]: 121%; EC50, p53 activation, cherry pick confirmation [7]: inactive; Efficacy, p53 activation, cherry pick confirmation [7]: inactive; EC50, p53 activation, cherry pick confirmation [4]: inactive; EC50, p53 activation, primary screening [4]: inactive; Efficacy, p53 activation, cherry pick confirmation [4]: inactive; Efficacy, p53 activation, primary screening [4]: inactive; EC50, viability, cherry pick confirmation [5]: inactive; EC50, viability, primary screening [5]: inactive; Efficacy, viability, cherry pick confirmation [5]: inactive; Efficacy, viability, primary screening [5]: inactive; EC50 [6, 13]: 2.11 µM
3 | Aflatoxin B1 [reference compound] |  |  |  |  |  |  |  |  |  |  |  |  |  |  |  |  | EC50 [2]: inactive; EC50 [3]: inactive; p53 activation efficacy [7]: 77.9079 and 59.8273; potency in the confirmation study compared to the primary screening [7]: tenfold higher potency; EC50 [4]: 4.5 µM and 5.3 µM and 3 µM
4 | O=C1OC(O)C(Cl)=C1Cl (centres unmarked) [Mucochloric acid] |  | inactive |  | inactive | inactive | inactive | inactive | inactive | inactive | inactive | inactive | inactive | 49.4 µM | 51.8% | inactive | inactive | EC50 ([1]; Homo sapiens, HCT-116, read-out: p53 activation EC50, cherry pick confirmation): 15.9 µM; Emax ([1]; Homo sapiens, HCT-116, read-out: p53 activation efficacy, cherry pick confirmation): 180%
5 | O=c1[nH]cc(F)c(=O)[nH]1 [5-Fluorouracil] |  |  |  |  |  |  |  |  |  |  |  |  |  |  |  |  | EC50 [1, 10]: 21.2 µM; EC50 [1, 11]: 5.93 µM; Emax [1, 12]: 98.3%; EC50, p53 activation, cherry pick confirmation [7]: inactive; Efficacy, p53 activation, cherry pick confirmation [7]: inactive; EC50, p53 activation, cherry pick confirmation [4]: inactive; EC50, p53 activation, primary screening [4]: inactive; Efficacy, p53 activation, cherry pick confirmation [4]: inactive; Efficacy, p53 activation, primary screening [4]: inactive; EC50, viability, cherry pick confirmation [5]: inactive; EC50, viability, primary screening [5]: inactive; Efficacy, viability, cherry pick confirmation [5]: inactive; Efficacy, viability, primary screening [5]: inactive; EC50 [6, 13]: 3.79 µM
6 | CCc1c2c(nc3ccc(OC(=O)N4CCC(N5CCCCC5)CC4)cc13)-c1cc3c(c(=O)n1C2)COC(=O)[C@]3(O)CC [Irinotecan, reference compound] |  |  |  |  |  |  |  |  |  |  |  |  |  |  |  |  | EC50 [2]: Inactive; EC50 ([3]; Homo sapiens, HCT-116): 0.29 µM; Emax ([3]; Homo sapiens, HCT-116, read-out: efficacy): 79.9%; EC50 ([6]; HCT-116): 0.23 µM; Emax ([6]; HCT-116, read-out: efficacy): 109%
7 | O=C(O)CCCc1ccc(N(CCCl)CCCl)cc1 [Chlorambucil] |  |  |  |  |  |  |  |  |  |  |  |  |  |  |  |  | p53 activation efficacy [1]: 39.7467; EC50 ([1]; Homo sapiens, HCT-116, read-out: p53 activation EC50): 25.7 µM; Emax ([1]; Homo sapiens, HCT-116, read-out: p53 activation efficacy): 31.3%; EC50 ([1]; read-out: p53 activation EC50): 37.3 µM; p53 activation EC50 [7]: inactive; p53 activation EC50 [4]: inactive; p53 activation efficacy [4]: inactive; Viability EC50 [5]: inactive; Viability efficacy [5]: inactive; EC50 ([6]; HCT-116, read-out: p53 activation EC50): 22.6 µM; Emax ([6]; HCT-116, read-out: p53 activation efficacy): 25.2%
8 | c1ccc2cc3c(cc2c1)-c1cccc2cccc-3c12 [Benzo(k)fluoranthene] |  |  |  |  |  |  |  |  |  |  |  |  |  |  |  |  | p53 activation Efficacy, No MS [1]: 189.362% and 164.004%; EC50 ([1]; Homo sapiens, HCT-116, read-out: p53 activation EC50, No MS): 8.42 µM; EC50 ([1]; read-out: p53 activation EC50, No MS): 12.2 µM; EC50 ([2]; Homo sapiens, HCT-116, 0.5 h): 10.4 µM; EC50 ([3]; Homo sapiens, HCT-116): 32.9 µM; Viability EC50, HLM [5]: inactive; Viability EC50, No MS [5]: inactive; Viability EC50, RLM [5]: inactive; Viability Efficacy, HLM [5]: inactive; Viability Efficacy, No MS [5]: inactive; Viability Efficacy, RLM [5]: inactive; EC50 ([6]; HCT-116): 37 µM; Emax ([6]; HCT-116, read-out: efficacy): 565%
9 | c1cc2ccc3cccc4ccc(c1)c2c34 [Pyrene] | inactive | inactive | inactive | inactive | inactive | inactive | inactive | inactive | inactive | inactive | inactive | inactive | 21.7 µM | 51.6% | inactive | inactive | 
10 | O=P(OCC(Br)CBr)(OCC(Br)CBr)OCC(Br)CBr (centres unmarked) [Tris(2,3-dibromopropyl) phosphate] | inactive | inactive | inactive | inactive | inactive | inactive | inactive | inactive | inactive | inactive | inactive | inactive | 46.6 µM | 38.9% | inactive | inactive | 
11 | COP(=O)(OC)O/C(=C\Cl)c1cc(Cl)c(Cl)cc1Cl [Tetrachlorvinphos (Gardona), Tetrachlorvinphos] |  |  |  |  |  |  |  |  |  |  |  |  |  |  |  |  | EC50 ([2]; Homo sapiens, HCT-116, 0.5 h): 2.53 µM; EC50 ([3]; Homo sapiens, HCT-116): 18.1 µM; EC50 ([6]; HCT-116): 10.5 µM; Emax ([6]; HCT-116, read-out: efficacy): 39.9%
12 | c1ccc2c(c1)c1cccc3ccc4cccc2c4c31 [Benzo(e)pyrene] | inactive |  | inactive |  | inactive | inactive | inactive | inactive | inactive | inactive | inactive | inactive | 20.1 µM | 48.3% | inactive | inactive | EC50 ([1]; Homo sapiens, HCT-116, read-out: p53 activation EC50, primary screening): 36.3 µM; Emax ([1]; Homo sapiens, HCT-116, read-out: p53 activation efficacy, primary screening): 104%
13 | C=CC1(C)OC(=O)N(c2cc(Cl)cc(Cl)c2)C1=O (centres unmarked) [Vinclozolin] | inactive | inactive | inactive | inactive | inactive | inactive | inactive | inactive | inactive | inactive | inactive | inactive | 16.9 µM | 39.4% | inactive | inactive | 
14 | CN1CCc2cc3c(cc2C1O)OCO3 (centres unmarked) [Hydrastinine hydrochloride] | inactive | inactive | inactive | inactive | inactive | inactive | inactive | inactive | inactive | inactive | inactive | inactive | 28.6 µM | 56.5% | inactive | inactive | 

From PMC9151520 (Archives of Toxicology, 2022)
